Test results from ChEMBL document CHEMBL5247574, “Recent Progress on Bile Acid Receptor Modulators for Treatment of Metabolic Diseases” (J Med Chem, 2016).
≈ marks a conversion by molar mass, not a printed value.

How the values were obtained:
Bile acid receptor [1] = target: T1, Bile acid receptor (Homo sapiens, UniProt Q96RI1); assay: Agonist activity at FXR (unknown origin)
T1 sequence (Q96RI1 whole entry): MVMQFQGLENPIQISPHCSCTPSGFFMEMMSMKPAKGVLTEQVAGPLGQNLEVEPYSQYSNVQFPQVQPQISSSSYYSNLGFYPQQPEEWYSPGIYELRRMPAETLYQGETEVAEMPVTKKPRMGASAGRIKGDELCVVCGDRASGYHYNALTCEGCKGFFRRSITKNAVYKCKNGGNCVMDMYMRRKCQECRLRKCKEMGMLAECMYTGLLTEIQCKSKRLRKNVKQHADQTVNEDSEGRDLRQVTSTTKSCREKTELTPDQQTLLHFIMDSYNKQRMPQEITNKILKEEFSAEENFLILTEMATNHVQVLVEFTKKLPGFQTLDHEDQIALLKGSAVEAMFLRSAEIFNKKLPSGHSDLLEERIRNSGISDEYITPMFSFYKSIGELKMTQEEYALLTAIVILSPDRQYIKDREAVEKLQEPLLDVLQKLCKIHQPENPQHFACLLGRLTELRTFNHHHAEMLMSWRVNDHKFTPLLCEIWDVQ

[2] = target: T2, G-protein coupled bile acid receptor 1 (Homo sapiens) (UniProt Q8TDU6); assay: Agonist activity at human TGR5 transfected in human NCI-H716 cells assessed as increase in GLP-1 secretion at 5 uM relative to control; format: cell-based; conditions: filed as agonist
T2 sequence (whole entry): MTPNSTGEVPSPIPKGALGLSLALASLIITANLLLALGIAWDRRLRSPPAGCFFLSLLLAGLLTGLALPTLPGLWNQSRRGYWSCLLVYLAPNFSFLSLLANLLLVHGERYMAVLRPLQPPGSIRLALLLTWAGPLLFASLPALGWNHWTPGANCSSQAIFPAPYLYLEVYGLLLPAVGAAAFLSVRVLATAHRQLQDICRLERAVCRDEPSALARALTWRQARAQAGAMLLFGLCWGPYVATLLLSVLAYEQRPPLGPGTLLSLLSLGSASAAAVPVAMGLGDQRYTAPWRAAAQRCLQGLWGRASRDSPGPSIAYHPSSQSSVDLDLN

[3] = target: T2, G-protein coupled bile acid receptor 1 (Homo sapiens); assay: Agonist activity at human TGR5 transfected in human NCI-H716 cells assessed as increase in cAMP production at 10 uM relative to control; format: cell-based; conditions: filed as agonist
[4] = target: T3, G-protein coupled bile acid receptor 1 (Homo sapiens, UniProt Q8TDU6); assay: Agonist activity at TGR5 in human HEK293 cells assessed as increase in cAMP production; format: cell-based
T3 sequence (Q8TDU6 whole entry): T2 sequence (whole entry)

[5] = Aqueous solubility of compound; format: physicochemical; conditions: buffer
[6] = Clearance in mouse liver microsomes; format: ADME, Microsome; conditions: liver microsomes, read-out: CLH
[7] = target: T4, G-protein coupled bile acid receptor 1 (Mus musculus, UniProt Q80SS6); assay: Agonist activity at mouse TGR5
T4 sequence (Q80SS6 whole entry): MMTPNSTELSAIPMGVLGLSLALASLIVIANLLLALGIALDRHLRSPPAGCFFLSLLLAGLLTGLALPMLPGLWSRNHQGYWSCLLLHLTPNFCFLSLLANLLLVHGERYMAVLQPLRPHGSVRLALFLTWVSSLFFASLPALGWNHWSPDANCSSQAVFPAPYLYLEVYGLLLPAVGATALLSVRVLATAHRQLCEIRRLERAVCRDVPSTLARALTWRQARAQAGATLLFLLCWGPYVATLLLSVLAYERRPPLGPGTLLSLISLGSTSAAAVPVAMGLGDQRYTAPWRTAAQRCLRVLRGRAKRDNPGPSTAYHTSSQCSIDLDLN

[8] = target: T3, G-protein coupled bile acid receptor 1; assay: Agonist activity at human TGR5
[9] = Clearance in human liver microsomes; format: ADME, Microsome; conditions: liver microsomes, read-out: CLH
[10] = target: T3, G-protein coupled bile acid receptor 1; assay: Agonist activity at human TGR5 transfected in CHO cells assessed as increase in cAMP production; format: cell-based
Bile acid receptor [11] = target: T1, Bile acid receptor; assay: Antagonist activity at FXR in human HepG2 cells in presence of CDCA by luciferase reporter assay; format: cell-based
Bile acid receptor [12] = target: T1, Bile acid receptor; assay: Agonist activity at human GST-tagged FXR LBD (193 to 472 residues) by FRET assay
[13] = target: T2, G-protein coupled bile acid receptor 1 (Homo sapiens); assay: Agonist activity at human TGR5 transfected in CHO cells assessed as increase in cAMP production at 100 nM relative to control; format: cell-based; conditions: filed as agonist
Bile acid receptor [14] = target: T1, Bile acid receptor; assay: Antagonist activity at FXR in human HepG2 cells incubated for 24 hrs by dual luciferase reporter assay; format: cell-based
[15] = Binding affinity to FXR alpha LBD (unknown origin); set-up: species or system Homo sapiens
Bile acid receptor [16] = target: T1, Bile acid receptor; assay: Antagonist activity at FXR (unknown origin) by HTFR assay
[17] = target: T3, G-protein coupled bile acid receptor 1; assay: Agonist activity at human TGR5 expressed in human HEK293 cells measured after 5.5 hrs by steady-glo luciferase assay; format: cell-based
[18] = target: T2, G-protein coupled bile acid receptor 1 (Homo sapiens); assay: Agonist activity at human TGR5 expressed in human HEK293 cells at 20 uM measured after 5.5 hrs by steady-glo luciferase assay relative to control; format: cell-based; conditions: filed as agonist
[19] = target: T5, G-protein coupled bile acid receptor 1 (Rattus norvegicus) (UniProt Q80T02); assay: Agonist activity at TGR5 in rat Primary intestinal cell assessed as stimulation of GLP-1 secretion incubated for 2 hrs by ELISA analysis relative to control; format: cell-based; conditions: filed as agonist
T5 sequence (whole entry): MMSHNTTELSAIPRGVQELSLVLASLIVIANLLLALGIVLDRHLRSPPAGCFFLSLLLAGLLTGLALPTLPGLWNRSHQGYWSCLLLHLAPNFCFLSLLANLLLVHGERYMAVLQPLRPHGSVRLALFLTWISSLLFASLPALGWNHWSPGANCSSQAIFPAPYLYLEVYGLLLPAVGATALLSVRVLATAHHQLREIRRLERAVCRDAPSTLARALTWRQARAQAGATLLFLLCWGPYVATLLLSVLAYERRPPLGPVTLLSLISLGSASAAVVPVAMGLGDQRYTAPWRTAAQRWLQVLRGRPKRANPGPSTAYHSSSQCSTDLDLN

CO[C@H](c1ccccc1)c1nc2cc(F)c(F)cc2n1C(C(=O)Nc1ccc(C(=O)O)cc1C)C1CCCCC1 (some centres not stated)
IC50 (Bile acid receptor [1]): 20 nM

CNc1cccc([C@H]2O[C@H](CC(=O)Nc3ccccc3F)C(=O)N(CC(C)C)c3ccccc32)c1
Activity [2]: 157% | Activity [3]: 100%

Fc1ccc(-n2c(COc3cccc4cnccc34)nc3ccccc32)c(Cl)c1
EC50 [4]: 229 nM

O=C(Nc1nnn[nH]1)c1cc(Cl)c(Oc2ncccc2C(=O)N2CCN(C3CC3)c3ccccc32)cc1Cl
solubility [5]: 535 µg/mL (≈ 970 µM) | microsomal CLint [6]: 56 µL/min/mg | EC50 [7]: 350 nM | EC50 ([8]; read-out: EC50): 76 nM | microsomal CLint [9]: 56 µL/min/mg

COc1cc(F)ccc1-c1ccncc1N(C)C(=O)c1cc(C(F)(F)F)cc(S(=O)(=O)N2CC3(COC3)C2)c1
EC50 [10]: 9 nM

COc1ccc(S(=O)(=O)N2CCCN(S(=O)(=O)c3ccc(OC)c(OC)c3)CC2)cc1OC [SB-756050]
EC50 ([8]; read-out: pEC50 (converted)): 1000 nM

Brc1ccc(CCNCc2cc3ccncc3nc2-c2ccsc2)cc1
EC50 [4]: < 10000 nM

C=C1[C@@H](O)CC[C@]2(C)C3CC[C@@]4(C)C(=C3CC[C@@H]12)CC[C@@H]4[C@H](C)CC[C@H](CC)C(C)C (some centres not stated)
IC50 (Bile acid receptor [11]): 40000 nM

Cc1cc(/C(C[C@H](c2ccc(C3C[C@@H]4C(C(=O)O)[C@@H]4C3)cc2)c2ccc(F)cc2F)=N\O)ccn1 (some centres not stated)
EC50 [10]: 1 nM

O=C(O)c1ccc2nc(N3CCC(OCc4c([C@H]5CCCC[C@@H]5C(F)(F)F)noc4C4CC4)CC3)sc2c1 (stereo in doubt; form 1)
EC50 (Bile acid receptor [12]): 64 nM

CC[C@@H](CC[C@@H](C)[C@H]1CCC2=C3CC[C@H]4C(C)=CCC[C@]4(C)C3CC[C@@]21C)C(C)C (some centres not stated)
IC50 (Bile acid receptor [11]): 35000 nM

O=C(O)c1ccc2nc(N3CCC(OCc4c([C@H]5CCCC[C@@H]5C(F)(F)F)noc4C4CC4)CC3)sc2c1 (stereo in doubt; form 2)
EC50 (Bile acid receptor [12]): 245 nM

COc1ccc(C(C)(C)c2nnc(SCCOc3ccc(-n4cnc(-c5ccsc5)c4)cc3)n2-c2ccc(F)cc2)cc1OC
Activity [13]: 147%

CN(C)c1cc(Cl)c(C(=O)N(Cc2ccccc2)c2ccc(O)c(C(C)(C)C)c2)c(Cl)c1
IC50 (Bile acid receptor [14]): 4500 nM | Kd [15]: 8300 nM

CC(C)c1onc(-c2c(Cl)cccc2Cl)c1COc1ccn(Cc2ccc(-c3ccccc3C(=O)O)cc2)n1
EC50 (Bile acid receptor [16]): 6000 nM

Fc1cccc(F)c1-c1ccncc1CN1C(c2ccco2)=NO[C@@H]1c1cc(C(F)(F)F)cc(C(F)(F)F)c1Cl
EC50 [17]: 1.4 nM | Activity [18]: 96%

O=C(c1cccnc1Oc1cc(Cl)ccc1Cl)N1CCN(C2COC2)c2ccccc21
solubility [5]: 14 µg/mL (≈ 30.7 µM)

O=c1c2nccnc2nc(-c2ccc(F)cc2)n1CCc1ccc(Cl)cc1
EC50 [4]: < 10000 nM

FC(F)(F)c1ccc(CNCc2cc3ccsc3nc2-c2ccsc2)cc1
EC50 [4]: < 10000 nM

Fc1ccccc1-c1ccncc1CN1C(c2ccccc2)=NOC1c1cc(C(F)(F)F)cc(C(F)(F)F)c1 (configuration not stated)
EC50 [17]: 79 nM | Activity [18]: 93%

O=C(Nc1cc(Cl)ccc1-c1nc2cc(F)c(F)cc2n1CC1CCCCC1)c1ccc(-c2nnn[nH]2)cc1F
IC50 (Bile acid receptor [1]): 0.4 nM

Fc1ccccc1-c1ccncc1CN1C(c2ccco2)=NOC1c1cc(C(F)(F)F)cc(C(F)(F)F)c1Cl (configuration not stated)
EC50 [17]: 5.6 nM | Activity [18]: 90%

O=C1COc2nccc(-c3ccccc3F)c2CN1Cc1cc(C(F)(F)F)cc(C(F)(F)F)c1
Activity [19]: 360%
